# According to the supplement of paper PMC10949913:
# Key:
# Experiment in all cases: area under concentration-response curve (viability) (AUC (a.u.)); higher = less active
# Conditions in all cases: 48 h
# [1] = system: NCI-H295R
# Method in brief: (§1)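 Three adrenocortical carcinoma cell lines were plated in 1,536-well plates at 500–1,000 cells/well in 5 µL medium, and 23 nL of each library compound was added at 11 concentrations. After 48 h, CellTiter-Glo was applied for 15 minutes at room temperature before luminescence was read. Each plate's signals were normalised to vehicle and empty-well controls. AC50 and area under the curve were taken from fitted concentration-response curves, with only inhibitory or non-responding curve classes retained.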
# [2] = system: CU-ACC2
# Method in brief: as §1
# [3] = system: CU-ACC1
# Method in brief: as §1
Compound,area under concentration-response curve [1],area under concentration-response curve [2],area under concentration-response curve [3]
CNCCN(C)Cc1c[nH]nc1-c1ccc(O[C@H]2C[C@H](OCCC3CCOCC3)C2)cc1,546,512,520
CCC/1=C/C2=C(C(=O)N1CC(=O)C3=CC=CC=C3)C(=C([N]2C)C(=O)NC4CCN(CC4)C(=O)CO)OCC(F)(F)F,594,642,572
NC(=O)c1cccc(-c2cccc(OC(=O)NC3CCCCC3)c2)c1,470,485,480
CC(C)NC(=O)N1CC[C@@H](C1)NC/2=N/C3=C(C=CC(=C3)F)N(CC(F)F)C4=C2C=C(Cl)C=C4,580,656,580
COC/1=C/C=C2\C(=C/C1=O)[C@H](CCC3=CC(=C(OC)C(=C23)OC)OC)NC(C)=O,480,548,536
Cn1cc(-c2ccc3nnc(Sc4ccc5ncccc5c4)n3n2)cn1,525,447,516
Clc1cccc(C(c2ccc3nc[nH]c3c2)n2ccnc2)c1 (stereo unspecified),491,633,534
COc1ccc2cc([C@H](C)C(=O)O)ccc2c1,524,510,503
CCN([C@H]1CC[C@@H](CC1)N(C)CCOC)C2=C(C)C(=CC(=C2)C#CCN3CCOCC3)C(=O)NC\C4=C(C)\C=C(\C)NC4=O,552,500,536
CCC(=O)O[C@@]1([C@H](C)C[C@H]2[C@@H]3C[C@H](F)\C4=C\C(=O)\C=C/[C@]4(C)[C@@]3(F)[C@@H](O)C[C@]12C)C(=O)SCF,510,484,372
O=C1CCCC(=O)C1C(=O)c1ccc(C(F)(F)F)cc1[N+](=O)[O-],545,576,565
FC(F)(F)c1ccc(/C=C/c2nc(COc3ccc(CCCCn4ccnn4)cc3)co2)cc1,531,596,265
CC(=O)OCCN1C(=O)c2c(C)nc3ccc([S+](=O)([O-])N4CCOCC4)cc3c2C1=O,581,653,547
CC1(C)CCC(C)(C)c2cc(NC(=O)c3ccc(C(=O)O)cc3)ccc21,443,495,468
O=C(NCc1ccccc1)[C@H](Cc1ccccc1)NC(=O)[C@H]1O[C@@H]1C(=O)NCCc1ccc(O)cc1,524,557,495
OC(CCN1CCCCC1)(C2CC\3CC2\C=C3)C4=CC=CC=C4 (stereo unspecified),519,582,522
COc1nc(C)nc(Cl)c1NC1=NCCN1,504,436,468
O=C1NC(=O)/C(=C\c2ccc(-c3ccc(F)cc3)o2)S1,522,572,471
CC(C)C[C@H](CC(=O)O)C(=O)N[C@@H](Cc1c[nH]c2ccccc12)C(=O)N[C@@H](C)c1ccccc1,577,622,433
CN[C@@H]1[C@H](O[C@H]2[C@H](O[C@@H]3[C@@H](O)[C@H](O)[C@@H](NC(=N)N)[C@H](O)[C@H]3NC(=N)N)O[C@@H](C)[C@]2(O)C=O)O[C@@H](CO)[C@H](O)[C@H]1O,553,606,516
C/C(O)=C(\C#N)C(=O)Nc1ccc(C(F)(F)F)cc1,524,607,503
CC[S+](=O)([O-])N1CCC([C@@H](C)n2c(C)c(/C(O)=N/Cc3c(OC)cc(C)nc3O)c3ccccc32)CC1,537,605,509
Nc1nc(N)c2nc(-c3cccc(O)c3)c(-c3cccc(O)c3)nc2n1,483,499,448
CN(CCOc1ccc(CC2SC(=O)NC2=O)cc1)c1ccccn1 (stereo unspecified),576,644,515

Compound,area under concentration-response curve [1],area under concentration-response curve [2],area under concentration-response curve [3]
Cc1cnc(C(=O)O)c[n+]1[O-],526,579,513
COc1cc(C(C)C)c(Oc2cnc(NC(CO)CO)nc2N)cc1I,594,661,557
N#C[C@@H]1C[C@@H]2C[C@@H]2N1C(=O)[C@@H](N)C12CC3CC(CC(O)(C3)C1)C2,517,598,500
CNC[C@H](O)[C@@H](O)[C@H](O)[C@H](O)CO,547,542,421
c1ccc(CNCc2ccc(CN3CCCNCCNCCCNCC3)cc2)nc1,542,601,514
Cc1cccc(C)c1NC(=O)CN1CCCC1=O,520,544,486
CC(=O)NC[C@H]1CN(c2ccc(N3CCOCC3)c(F)c2)C(=O)O1,612,700,565
C[C@@H]1COCCN1C\2=C\C(=O)N\3CC[C@H](N(CC4=CN=CC(=C4)Cl)C3=N2)C(F)(F)F,590,661,550
C#CCN(C)[C@H](C)Cc1ccccc1,434,457,467
CC1CNc2c(cccc2[S+](=O)([O-])N[C@@H](CCCNC(=N)N)C(=O)N2CC[C@@H](C)C[C@@H]2C(=O)O)C1 (stereo partly specified),507,547,502
N[C@@H]1CN(CC12CC2)C3=C(F)C=C4C(=O)\C(=C/N([C@@H]5C[C@@H]5F)C4=C3Cl)C(O)=O,381,426,390
COc1cc(N2CCC(O)CC2)ccc1Nc1cc(Nc2ccccc2[S+](=O)([O-])C(C)C)c2cc[nH]c2n1,588,654,585
O=[N+]([O-])c1ccc(-c2nc(-c3ccc(F)cc3)c(-c3ccncc3)[nH]2)cc1,489,567,498
O=C(O)Cn1nnc(-c2cc(N3CCC(Oc4cc(F)ccc4Br)CC3)no2)n1,515,594,491
CN1C2CCC1CC(OC(=O)C(CO)c1ccccc1)C2 (stereo unspecified),396,396,408
N[S+](=O)([O-])c1cc2c(cc1Cl)NC(C(Cl)Cl)N[S+]2(=O)[O-] (stereo unspecified),536,591,477
CC[C@H]1OC(=O)[C@H](C)[C@@H](O[C@H]2C[C@@](C)(OC)[C@@H](O)[C@H](C)O2)[C@H](C)[C@@H](O[C@@H]2O[C@H](C)C[C@H](N(C)C)[C@H]2O)[C@](C)(O)C[C@@H](C)C(=O)[C@H](C)[C@@H](O)[C@]1(C)O,594,634,544
Clc1ccccc1C(c1ccccc1)(c1ccccc1)n1cccn1,520,489,496
CCCCCCCCCCCCCCCCCCOP(=O)([O-])OC1CC[N+](C)(C)CC1,449,534,418
O=C(O)CSCC(=O)NC1CCSC1=O (stereo unspecified),405,415,379
O=C(Nc1ccccc1)Nc1ccc(-c2ccc(C(=O)[C@@H]3CCC[C@H]3C(=O)O)cc2)cc1,441,472,481
CCC1(C)CC(=O)NC1=O (stereo unspecified),551,603,497
COC(=O)[C@@H](N)CCCNC(=N)N[N+](=O)[O-],557,610,520
